Target: T1, PDE5A1 (Homo sapiens, UniProt O76074)
T1 construct: from tissue; host or cells: human platelets from fresh donor blood (10,000 x g supernatant of sonicated lysate)
Experiment: Inhibition of type 5 phosphodiesterase (PDE5) activity, modified SPA test with human platelet lysate
Format: biochemical
Details: 0.5 μM cGMP, read-out: PDE5A1 inhibitory values [measured as −log IC50 (mol/l)] (converted)
How it was run: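 Enzyme source is lysate from human platelets (10,000 g supernatant). Compound preincubated 5 min at 37° C in Tris pH 7.4 containing 1 μM motapizone and 10 nM of a PDE2 inhibitor. Reaction started with 0.5 μM cGMP ([3H] tracer) and run 15 min; SPA read-out, IC50 by non-linear regression.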

Row | IC50 | SMILES
1 | < 1 nM | CCC(=O)N[C@H]1CC[C@@H](NC(=O)c2c(C)[nH]c3c(-c4cc(F)c(OC)cc4OCC4CC4)ncnc23)CC1 [Example E139, 4-[2-(Cyclopropylmethoxy)-5-fluoro-4-methoxyphenyl]-6-methyl-N-[cis-4-(propionylamino)cyclohexyl]-5H-pyrrolo[3,2-d]pyrimidine-7-carboxamide]
2 | < 1 nM | COCC(=O)N1CC[C@@H](NC(=O)c2c(C)[nH]c3c(-c4c(OCC5CC5)ccc5c4OCO5)ncnc23)C1 [Example E15, 4-[5-(Cyclopropylmethoxy)-1,3-benzodioxol-4-yl]-N-[(3R)-1-(methoxyacetyl)pyrrolidin-3-yl]-6-methyl-5H-pyrrolo[3,2-d]pyrimidine-7-carboxamide]
3 | < 1 nM | CCC(=O)N1CC[C@@H](NC(=O)c2c(C)[nH]c3c(-c4cc(F)c(OC)cc4OCC4CC4)ncnc23)C1 [Example E187, 4-[2-(Cyclopropylmethoxy)-5-fluoro-4-methoxyphenyl]-6-methyl-N-[(3R)-1-propionylpyrrolidin-3-yl]-5H-pyrrolo[3,2-d]pyrimidine-7-carboxamide]
4 | < 1 nM | COc1cc(-c2ncnc3c(C(=O)N[C@H]4CC[C@H](NC(=O)CO)CC4)c(C)[nH]c23)c(OCC2CC2)cc1F [Example F67, 4-[2-(Cyclopropylmethoxy)-4-fluoro-5-methoxyphenyl]-N-[trans-4-(glycoloylamino)cyclohexyl]-6-methyl-5H-pyrrolo[3,2-d]pyrimidine-7-carboxamide]

Reference: patent publication US9376442B2, “Methylpyrrolopyrimidinecarboxamides” (Takeda GmbH, priority 2009, dated 2016)
